Data: patent publication US4439606A, “Antiatherosclerotic 1-piperazinecarbonyl compounds” (American Cyanamid Company, priority 1982, dated 1984)

What follows are compounds tested on serum cholesterol and triglyceride (assay: Lowering of serum lipid levels, oral administration in diet to rats). Details: 0.1% of test compound by weight in diet, 5 days, vs control rats.
Format: in vivo, male rats COBS, CD, SD strain
Description: The compounds were also tested for their ability to lower lipid levels in mammals. The compounds were administered orally admixed with diet to groups of four male rats COBS, CD, SD strain from Charles River Breeding Laboratories, Inc., Wilmington, Mass. A control group of eight rats was maintained on the diet alone; test groups were maintained on the diet plus 0.1% of test compound by weight. After 5 days treatment, serum cholesterol and triglyceride concentrations were determined by direct enzymatic procedures using a Centrifichem® System 400 autoanalyzer (Union Carbide Co.). Cholesterol concentrations were determined by the combined cholesterol esterasecholesterol oxidase procedure of Roeschlau, et al., Zeit. Klin. Chem. Klin. Biochem., 12, 226 (1974). Triglycerides were determined by the combined method of lipase catalyzed hydrolysis of triglycerides to glycerol and free fatty acids [Bucolo, G. and David, H., Clin. Chem., 19, 476 (1973) and Wahlefeld, A. W., in "Methods of Enzymatic Analysis," Vol, 4, Bergmeyer, H. D., Editor, Academic Press, New York, N.Y. (1974), pp. 1831-1835] and the enzymatic oxidation of the glycerol which leads to the production of colored formazan [Stavropoulos, W. S. and Crouch, R. D., Clin. Chem., 20, No. 7, 857 (1974)]. […] The compounds are considered active if they produce a statistically significant lowering of either sterol or triglycerides.

Row | Compound | % Lowering of Serum Triglycerides
1 | CC1CN(C(=O)Cc2ccccc2)CCN1c1ccc(Cl)cc1 (stereo not shown) [1-(p-Chlorophenyl)-2-methyl-4-phenylacetylpiperazine] | 61%
2 | Cc1ccccc1CC(=O)N1CCN(c2cnccn2)CC1 [1-(2-Methylphenylacetyl)-4-(2-pyrazinyl)piperazine] | 55%
3 | O=C(Cc1ccc(Cl)cc1Cl)N1CCN(c2cnccn2)CC1 [1-(2,4-Dichlorophenylacetyl)-4-(2-pyrazinyl)piperazine] | 44%
4 | O=C(c1cccnc1)N1CCN(c2cnccn2)CC1 [1-(2-Pyrazinyl)-4-(3-pyridylcarbonyl)piperazine] | 30%
5 | O=C(Cc1cccc(Cl)c1)N1CCN(c2cnccn2)CC1 [1-(m-Chlorophenylacetyl)-4-(2-pyrazinyl)piperazine] | 46%
6 | CNC(=O)N1CCN(c2cnccn2)CC1 [N--Methyl-4-(2-pyrazinyl)-1-piperazinecarboxamide] | 38%
7 | O=C(Cc1ccc(Cl)cc1)N1CCN(c2cnccn2)CC1 [1-(p-Chlorophenylacetyl)-4-(2-pyrazinyl)piperazine] | 51%
8 | Cc1cccc(CC(=O)N2CCN(c3cnccn3)CC2)c1 [1-(2-Pyrazinyl)-4-(m-tolylacetyl)piperazine] | 40%
9 | O=C(Cc1ccccc1)N1CCN(Cc2cccnc2)CC1 [1-Phenylacetyl-4-(3-pyridylmethyl)piperazine] | 34%
10 | O=C(Nc1ccc(Cl)cc1)N1CCN(c2cnccn2)CC1 [4'-Chloro-4-(2-pyrazinyl)-1-piperazinecarboxanilide] | 33%
11 | O=C(C1CC1)N1CCN(c2cnccn2)CC1 [1-Cyclopropylcarbonyl-4-(2-pyrazinyl)piperazine] | 37%
12 | O=C(N1CCN(c2cnccn2)CC1)C(F)(F)C(F)(F)C(F)(F)F [1-Heptafluorobutyroyl-4-(2-pyrazinyl)piperazine] | 51%
13 | O=C(c1ccccc1)N1CCN(c2cnccn2)CC1 [1-benzoyl-4-(2-pyrazinyl)piperazine, 1-Benzoyl-4-(2-pyrazinyl)piperazine] | 30%
14 | CCNC(=O)N1CCN(c2cnccn2)CC1 [N--Ethyl-4-(2-pyrazinyl)-1-piperazinecarboxamide] | 43%

What follows are compounds tested against T1, fatty acyl CoA:-cholesterol acyl transferase (ACAT) (Rattus norvegicus, UniProt O70536) (assay: Inhibition of enzymatic esterification of cholesterol (ACAT inhibition), rat adrenal supernatant). Details: final concentration 5.2 μg./ml., 37° C., 30 minutes.
T1 construct: The supernatant, containing the microsomal fraction, served as the source of the cholesterol-esterifying enzyme; from tissue; host or cells: rat adrenals, 1000 x g supernatant containing the microsomal fraction
T1 sequence (O70536 1-545): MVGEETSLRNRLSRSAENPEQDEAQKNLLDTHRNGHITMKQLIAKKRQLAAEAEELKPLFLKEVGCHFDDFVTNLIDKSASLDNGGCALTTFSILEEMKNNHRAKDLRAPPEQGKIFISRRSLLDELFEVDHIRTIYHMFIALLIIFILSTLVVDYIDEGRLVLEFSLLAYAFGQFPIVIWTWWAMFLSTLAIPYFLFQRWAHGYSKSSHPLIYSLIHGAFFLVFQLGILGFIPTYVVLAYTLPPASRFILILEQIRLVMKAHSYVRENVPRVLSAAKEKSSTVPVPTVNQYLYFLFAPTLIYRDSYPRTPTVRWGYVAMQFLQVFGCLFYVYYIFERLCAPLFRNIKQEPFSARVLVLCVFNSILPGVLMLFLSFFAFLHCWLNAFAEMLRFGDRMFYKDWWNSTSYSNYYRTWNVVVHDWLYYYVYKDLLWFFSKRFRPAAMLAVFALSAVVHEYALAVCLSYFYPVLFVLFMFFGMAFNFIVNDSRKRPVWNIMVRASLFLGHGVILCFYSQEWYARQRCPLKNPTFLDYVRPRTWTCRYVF
Format: biochemical
Description: The compounds of the present invention were tested for their ability to inhibit the enzymatic esterification of cholesterol according to the procedure of Hashimoto, et al., Life Sci., 12(Part II), 1-12 (1973).
Rat adrenals were homogenized in 0.2 M monobasic potassium phosphate buffer, pH 7.4, and centrifuged at 1000 times gravity for 15 minutes at 5° C. The supernatant, containing the microsomal fraction, served as the source of the cholesterol-esterifying enzyme, fatty acyl CoA:-cholesterol acyl transferase (ACAT). A mixture comprising 50 parts of adrenal supernatant, 10 parts of bovine serum albumin (50 mg./ml.), 3 parts of test compound (final concentration 5.2 μg./ml.) and 500 parts of buffer were preincubated at 37° C. for 10 minutes, following which 20 parts of oleoyl […] were added and the final mixture was incubated at 37° C. for 30 minutes. A control mixture, omitting the test compound, was prepared and treated in the same manner. The lipids from the incubation mixture were extracted into an organic solvent and separated by thin-layer chromatography. The cholesterol ester fraction was counted in a scintillation counter. A statistically significant inhibition of the ACAT enzyme is the criterion for activity.

Row | inhibition at 5.2 µg/mL | Compound
15 | 88.1% | CC1CN(C(=O)Cc2ccccc2)CCN1c1ccc(Cl)cc1 (stereo not shown) [1-(p-Chlorophenyl)-2-methyl-4-phenylacetylpiperazine]
16 | 32.2% | O=C(Cc1ccc(Cl)cc1Cl)N1CCN(c2cnccn2)CC1 [1-(2,4-Dichlorophenylacetyl)-4-(2-pyrazinyl)piperazine]
17 | 31.2% | O=C(c1c(F)c(F)c(F)c(F)c1F)N1CCN(c2cnccn2)CC1 [1-Pentafluorobenzoyl-4-(2-pyrazinyl)piperazine]
18 | 73.3% | O=C(Cc1ccccc1)N1CCN(c2ccc(Cl)cc2)CC1 [1-(p-Chlorophenyl)-4-phenylacetylpiperazine]
19 | 32.6% | Cc1ccccc1CC(=O)N1CCN(c2nccs2)CC1 [1-(2-Thiazolyl)-4-o-tolylacetylpiperazine]
20 | 33.6% | CCCCCCCC(=O)N1CCN(c2cnccn2)CC1 [1-octanoyl-4-(2-pyrazinyl)piperazine, 1-Octanoyl-4-(2-pyrazinyl)piperazine]
21 | 40.1% | O=C(Cc1ccccc1)N1CCN(c2cnc3ccccc3n2)CC1 [1-Phenylacetyl-4-(2-quinoxalinyl)piperazine]
22 | 39.7% | CC(C)(C)c1ccc(C(=O)N2CCN(c3cnccn3)CC2)cc1 [1-(p-tert.-Butylbenzoyl)-4-(2-pyrazinyl)piperazine]
23 | 35.4% | CC(C)(C)NC(=O)N1CCN(c2cnccn2)CC1 [N--tert.-Butyl-4-(2-pyrazinyl)-1-piperazinecarboxamide]
24 | 42.2% | CCOC(=O)c1ccc(NC(=O)N2CCN(c3cnccn3)CC2)cc1 [Ethyl-p-[4-(2-pyrazinyl)-1-piperazinecarboxamido]benzoate]
25 | 30.6% | O=C(O)c1ccc(NC(=O)N2CCN(c3cnccn3)CC2)cc1 [p-[4-(2-Pyrazinyl)-1-piperazinecarboxamide]-benzoic acid]
